From patent US20150239889A1, “PYRAZOLOPYRIMIDINE COMPOUND” (MITSUBISHI TANABE PHARMA CORPORATION, priority 2012, published 2015)

The compounds below were run against T1, human HIF-PHD2 (Homo sapiens, UniProt Q9GZT9) (assay: HIF-PHD inhibition assay (fluorescence polarization), human HIF-PHD2). Conditions: 2-oxoglutaric acid 3.33 μmol/L.
T1 construct: purchased CrystalGenomics Ltd
T1 sequence (Q9GZT9 2-426 limits assumed): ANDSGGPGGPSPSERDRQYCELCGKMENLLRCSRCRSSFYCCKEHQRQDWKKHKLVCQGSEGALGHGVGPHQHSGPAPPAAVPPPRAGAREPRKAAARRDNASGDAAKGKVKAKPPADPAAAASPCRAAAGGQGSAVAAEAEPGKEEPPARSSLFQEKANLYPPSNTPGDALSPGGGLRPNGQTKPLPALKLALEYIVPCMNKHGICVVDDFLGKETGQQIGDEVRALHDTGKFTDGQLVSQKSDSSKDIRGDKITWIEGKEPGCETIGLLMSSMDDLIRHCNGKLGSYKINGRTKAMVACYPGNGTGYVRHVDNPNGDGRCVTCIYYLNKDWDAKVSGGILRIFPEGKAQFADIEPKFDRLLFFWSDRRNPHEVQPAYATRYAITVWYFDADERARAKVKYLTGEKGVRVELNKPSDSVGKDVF
Assay type: biochemical
Description: (§1) The activity of the test compound to inhibit human HIF-PHD2 and human HIF-PHD3 was determined.
(§2) The value of enzyme activity was calculated by subtracting the value of fluorescence polarization before addition of the enzyme from the value of fluorescence polarization after addition of enzyme (mP value).
(§3) FAM: 5′-fluoresceinamide ACA: aminocaproic acid
In the case of `CC1(C)CCCC(n2ncc3nc(-n4cc(C(=O)O)cn4)nc(O)c32)C1` (single isomer, unassigned) [Example 412], the IC50 is reported as 43 nM. `CC(c1ccc(N2CCC(C(F)(F)F)CC2)cc1)n1ncc2nc(-n3cc(C(=O)O)cn3)nc(O)c21` (racemic) [Example 423] was tested, and the IC50 was 31 nM. Work on `O=C(O)c1cnn(-c2nc(O)c3c(cnn3Cc3ccc(N4CCC(C(F)(F)F)CC4)cc3)n2)c1` [Example 422] yielded an IC50 of 38 nM. For `O=C(O)c1cnn(-c2nc(O)c3c(cnn3Cc3ccc(-c4cccc(Cl)c4Cl)cc3)n2)c1` [Example 75], the IC50 was 20 nM. In the case of `Cc1cc(C(C)n2ncc3nc(-n4cc(C(=O)O)cn4)nc(O)c32)ccc1Cl` (centres unmarked) [Example 293], the IC50 is reported as 61 nM. For `C[C@@H](c1ccc(OC(F)(F)F)c(Cl)c1)n1ncc2nc(-n3cc(C(=O)O)cn3)nc(O)c21` [Example 318], the IC50 was 16 nM. Work on `C[C@@H](c1cccc(Cl)c1)n1ncc2nc(-n3cc(C(=O)O)cn3)nc(O)c21` [Example 253] yielded an IC50 of 71 nM. `O=C(O)c1cnn(-c2nc(O)c3c(cnn3Cc3cccc4ccccc34)n2)c1` [Example 28] showed an IC50 of 35 nM. In the case of `O=C(O)c1cnn(-c2nc(O)c3c(cnn3C3CCC(F)(F)CC3)n2)c1` [Example 392], the IC50 is reported as 42 nM. Compound `Cc1ccc(C(F)(F)F)cc1[C@@H](C)n1ncc2nc(-n3cc(C(=O)O)cn3)nc(O)c21` [Example 285] has an IC50 of 76 nM. `O=C(O)c1cnn(-c2nc(O)c3c(cnn3Cc3cc(F)c(-c4ccccc4F)cc3F)n2)c1` [Example 100] gave an IC50 of 16 nM. In the case of `Cn1nc(C2CCCCC2)c2nc(-n3cc(C(=O)O)cn3)nc(O)c21` [Example 501], the IC50 is reported as > 300 nM. With `C[C@@H](c1cc(F)cc(C(F)(F)F)c1)n1ncc2nc(-n3cc(C(=O)O)cn3)nc(O)c21` [Example 274] the IC50 was 38 nM. `O=C(O)c1cnn(-c2nc(O)c3c(cnn3CCCOc3ccc(Cl)cc3)n2)c1` [Example 184] showed an IC50 of 10 nM. In the case of `CC1CCCC(n2ncc3nc(-n4cc(C(=O)O)cn4)nc(O)c32)C1` (centres unmarked) [Example 400], the IC50 is reported as 23 nM. `Cc1nn([C@@H](C)c2ccc(F)c(F)c2)c2c(O)nc(-n3cc(C(=O)O)cn3)nc12` [Example 450] gave an IC50 of 64 nM. In the case of `CCC1CCCC(n2ncc3nc(-n4cc(C(=O)O)cn4)nc(O)c32)C1` (single isomer, unassigned) [Example 414], the IC50 is reported as 33 nM. `C[C@@H](c1cccc(F)c1)n1ncc2nc(-n3cc(C(=O)O)cn3)nc(O)c21` [Example 254] was tested, and the IC50 was 97 nM. Compound `C[C@@H](c1ccc(C(F)(F)F)cc1)n1nc(C(F)(F)F)c2nc(-n3cc(C(=O)O)cn3)nc(O)c21` [Example 463] has an IC50 of 65 nM. `CCC(c1ccc(F)cc1)n1ncc2nc(-n3cc(C(=O)O)cn3)nc(O)c21` (centres unmarked) [Example 324] was tested, and the IC50 was 95 nM. For `Cc1cc(F)cc(C(C)n2ncc3nc(-n4cc(C(=O)O)cn4)nc(O)c32)c1` (centres unmarked) [Example 299], the IC50 was 79 nM. For `CC(c1cc(Cl)cc(Cl)c1)n1ncc2nc(-n3cc(C(=O)O)cn3)nc(O)c21` (centres unmarked) [Example 307], the IC50 was 45 nM. `CC(C)C(c1ccc(C(F)(F)F)cc1)n1ncc2nc(-n3cc(C(=O)O)cn3)nc(O)c21` (centres unmarked) [Example 356] gave an IC50 of 53 nM. For `O=C(O)c1cnn(-c2nc(O)c3c(cnn3Cc3ccc(-c4ccc(F)cc4F)cc3F)n2)c1` [Example 82], the IC50 was 32 nM. In the case of `O=C(O)c1cnn(-c2nc(O)c3c(n2)c(F)nn3C2CCCCCCC2)c1` [Example 482], the IC50 is reported as 43 nM. `C[C@@H](c1ccc(F)cc1Cl)n1ncc2nc(-n3cc(C(=O)O)cn3)nc(O)c21` [Example 252] gave an IC50 of 99 nM. With `CC(C)[C@H]1CC[C@H](C)[C@H](n2ncc3nc(-n4cc(C(=O)O)cn4)nc(O)c32)C1` [Example 405] the IC50 was 110 nM. `C[C@@H](C1CCN(c2ccc(Cl)cc2)CC1)n1ncc2nc(-n3cc(C(=O)O)cn3)nc(O)c21` [Example 432] gave an IC50 of 17 nM. With `Cc1cc(-c2ccccc2F)ccc1Cn1ncc2nc(-n3cc(C(=O)O)cn3)nc(O)c21` [Example 88] the IC50 was 8.6 nM. Work on `CC(C)c1ccccc1-c1ccc(Cn2ncc3nc(-n4cc(C(=O)O)cn4)nc(O)c32)cc1` [Example 59] yielded an IC50 of 29 nM. Compound `CC[C@H]1CC[C@H](n2nc(F)c3nc(-n4cc(C(=O)O)cn4)nc(O)c32)CC1` [Example 480] has an IC50 of 47 nM.

What follows are compounds tested against T2, human HIF-PHD3 (Homo sapiens, UniProt Q9H6Z9) (assay: HIF-PHD inhibition assay (fluorescence polarization), human HIF-PHD3). Conditions: 2-oxoglutaric acid 166 μmol/L.
T2 construct: purchased CrystalGenomics Ltd
T2 sequence (Q9H6Z9 whole entry): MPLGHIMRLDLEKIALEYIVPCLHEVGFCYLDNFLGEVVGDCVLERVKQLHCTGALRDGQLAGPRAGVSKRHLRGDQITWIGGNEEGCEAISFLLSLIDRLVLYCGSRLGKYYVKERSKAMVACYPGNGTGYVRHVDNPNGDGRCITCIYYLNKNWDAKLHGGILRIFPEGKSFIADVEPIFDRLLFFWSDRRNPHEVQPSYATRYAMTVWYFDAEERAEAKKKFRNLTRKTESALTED
Assay type: biochemical
Description: as §1, §2, §3
In the case of `CC1(C)CCCC(n2ncc3nc(-n4cc(C(=O)O)cn4)nc(O)c32)C1` (single isomer, unassigned) [Example 412], the IC50 is reported as 590 nM. With `CC(c1ccc(N2CCC(C(F)(F)F)CC2)cc1)n1ncc2nc(-n3cc(C(=O)O)cn3)nc(O)c21` (racemic) [Example 423] the IC50 was 740 nM. With `O=C(O)c1cnn(-c2nc(O)c3c(cnn3Cc3ccc(N4CCC(C(F)(F)F)CC4)cc3)n2)c1` [Example 422] the IC50 was 420 nM. For `O=C(O)c1cnn(-c2nc(O)c3c(cnn3Cc3ccc(-c4cccc(Cl)c4Cl)cc3)n2)c1` [Example 75], the IC50 was 120 nM. `Cc1cc(C(C)n2ncc3nc(-n4cc(C(=O)O)cn4)nc(O)c32)ccc1Cl` (centres unmarked) [Example 293] gave an IC50 of 510 nM. For `C[C@@H](c1ccc(OC(F)(F)F)c(Cl)c1)n1ncc2nc(-n3cc(C(=O)O)cn3)nc(O)c21` [Example 318], the IC50 was 290 nM. Compound `C[C@@H](c1cccc(Cl)c1)n1ncc2nc(-n3cc(C(=O)O)cn3)nc(O)c21` [Example 253] has an IC50 of 600 nM. `O=C(O)c1cnn(-c2nc(O)c3c(cnn3Cc3cccc4ccccc34)n2)c1` [Example 28] gave an IC50 of 360 nM. With `O=C(O)c1cnn(-c2nc(O)c3c(cnn3C3CCC(F)(F)CC3)n2)c1` [Example 392] the IC50 was 1300 nM. In the case of `Cc1ccc(C(F)(F)F)cc1[C@@H](C)n1ncc2nc(-n3cc(C(=O)O)cn3)nc(O)c21` [Example 285], the IC50 is reported as 870 nM. For `O=C(O)c1cnn(-c2nc(O)c3c(cnn3Cc3cc(F)c(-c4ccccc4F)cc3F)n2)c1` [Example 100], the IC50 was 89 nM. `Cn1nc(C2CCCCC2)c2nc(-n3cc(C(=O)O)cn3)nc(O)c21` [Example 501] was tested, and the IC50 was > 3000 nM. Work on `C[C@@H](c1cc(F)cc(C(F)(F)F)c1)n1ncc2nc(-n3cc(C(=O)O)cn3)nc(O)c21` [Example 274] yielded an IC50 of 380 nM. With `O=C(O)c1cnn(-c2nc(O)c3c(cnn3CCCOc3ccc(Cl)cc3)n2)c1` [Example 184] the IC50 was 360 nM. For `CC1CCCC(n2ncc3nc(-n4cc(C(=O)O)cn4)nc(O)c32)C1` (centres unmarked) [Example 400], the IC50 was 600 nM. Compound `Cc1nn([C@@H](C)c2ccc(F)c(F)c2)c2c(O)nc(-n3cc(C(=O)O)cn3)nc12` [Example 450] has an IC50 of 580 nM. With `CCC1CCCC(n2ncc3nc(-n4cc(C(=O)O)cn4)nc(O)c32)C1` (single isomer, unassigned) [Example 414] the IC50 was 820 nM. In the case of `C[C@@H](c1cccc(F)c1)n1ncc2nc(-n3cc(C(=O)O)cn3)nc(O)c21` [Example 254], the IC50 is reported as 510 nM. `C[C@@H](c1ccc(C(F)(F)F)cc1)n1nc(C(F)(F)F)c2nc(-n3cc(C(=O)O)cn3)nc(O)c21` [Example 463] showed an IC50 of 930 nM. With `CCC(c1ccc(F)cc1)n1ncc2nc(-n3cc(C(=O)O)cn3)nc(O)c21` (centres unmarked) [Example 324] the IC50 was 650 nM. `Cc1cc(F)cc(C(C)n2ncc3nc(-n4cc(C(=O)O)cn4)nc(O)c32)c1` (centres unmarked) [Example 299] gave an IC50 of 700 nM. With `CC(c1cc(Cl)cc(Cl)c1)n1ncc2nc(-n3cc(C(=O)O)cn3)nc(O)c21` (centres unmarked) [Example 307] the IC50 was 500 nM. `CC(C)C(c1ccc(C(F)(F)F)cc1)n1ncc2nc(-n3cc(C(=O)O)cn3)nc(O)c21` (centres unmarked) [Example 356] gave an IC50 of 710 nM. Compound `O=C(O)c1cnn(-c2nc(O)c3c(cnn3Cc3ccc(-c4ccc(F)cc4F)cc3F)n2)c1` [Example 82] has an IC50 of 130 nM. In the case of `O=C(O)c1cnn(-c2nc(O)c3c(n2)c(F)nn3C2CCCCCCC2)c1` [Example 482], the IC50 is reported as 1300 nM. `C[C@@H](c1ccc(F)cc1Cl)n1ncc2nc(-n3cc(C(=O)O)cn3)nc(O)c21` [Example 252] was tested, and the IC50 was 630 nM. In the case of `CC(C)[C@H]1CC[C@H](C)[C@H](n2ncc3nc(-n4cc(C(=O)O)cn4)nc(O)c32)C1` [Example 405], the IC50 is reported as 460 nM. `C[C@@H](C1CCN(c2ccc(Cl)cc2)CC1)n1ncc2nc(-n3cc(C(=O)O)cn3)nc(O)c21` [Example 432] gave an IC50 of 270 nM. Work on `Cc1cc(-c2ccccc2F)ccc1Cn1ncc2nc(-n3cc(C(=O)O)cn3)nc(O)c21` [Example 88] yielded an IC50 of 44 nM. In the case of `CC(C)c1ccccc1-c1ccc(Cn2ncc3nc(-n4cc(C(=O)O)cn4)nc(O)c32)cc1` [Example 59], the IC50 is reported as 95 nM. In the case of `CC[C@H]1CC[C@H](n2nc(F)c3nc(-n4cc(C(=O)O)cn4)nc(O)c32)CC1` [Example 480], the IC50 is reported as 670 nM.
